Results on 42 compounds are retold here after patent publication US9868746B2, “Substituted 5-aminothieno[2,3-C]pyridazine-6-carboxamide analogs as positive allosteric modulators of the muscarinic acetylcholine receptor M4” (Vanderbilt University, priority 2012, dated 2018).

This test deals with T1, mAChR M4 (Homo sapiens, UniProt P08173).
T1 construct: expressed in transfected cells; host or cells: CHO-K1 cells stably transfected with M4 cDNA and chimeric G-protein Gqi5
T1 sequence (P08173 1-479): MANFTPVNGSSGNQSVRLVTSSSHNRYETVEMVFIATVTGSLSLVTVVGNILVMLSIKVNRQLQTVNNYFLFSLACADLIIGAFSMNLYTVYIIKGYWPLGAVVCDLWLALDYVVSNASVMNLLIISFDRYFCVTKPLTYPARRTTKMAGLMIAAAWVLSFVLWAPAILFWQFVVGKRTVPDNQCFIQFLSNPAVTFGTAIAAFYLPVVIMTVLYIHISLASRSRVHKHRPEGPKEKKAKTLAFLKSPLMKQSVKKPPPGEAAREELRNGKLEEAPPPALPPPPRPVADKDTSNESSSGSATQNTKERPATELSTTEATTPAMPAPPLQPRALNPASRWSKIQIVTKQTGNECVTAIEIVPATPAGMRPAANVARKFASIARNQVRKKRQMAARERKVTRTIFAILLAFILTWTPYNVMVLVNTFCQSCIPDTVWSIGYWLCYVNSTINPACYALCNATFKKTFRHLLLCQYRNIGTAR
Briefly: mAChR M4 cell-based functional assay (calcium mobilization, potentiation of EC20 acetylcholine response). The following applies: for Emax at 30 µM: % ACh maximum at 30 μM. In general terms: A change in cytosolic calcium serves as a functional read-out for many receptors and channels.

[1] abbreviates: mAChR M4 cell-based functional assay, >10,000 estimated for low potency compounds without plateau, read-out: EC50.

Molecules are shown by their SMILES. Where two headings read alike, the source gives them in different places. Where only a bound is given, the exact number is not on record here.

For orientation: Emax means the maximal effect, on the per cent scale that the assay sets. The term EC50 denotes the concentration that produces a half-maximal response.

For the compound `Nc1c(C(=O)NCc2ccc(S(=O)(=O)C(F)F)cc2)sc2nnc3c(c12)CCCC3` [Example B427], the maximal effect (Emax) at 30 µM was found to be 39%. Also, the EC50 under setting [1] is 59 nM.

`Cc1nnc2sc(C(=O)NC3CN(S(=O)(=O)c4ccccc4)C3)c(N)c2c1C` [Example B159]: the maximum response (Emax) at 30 µM came to 56%. Further, the EC50 under setting [1] is 81 nM.

With `Cc1nnc2sc(C(=O)NCc3cnccn3)c(N)c2c1C` [Example B10], the Emax at 30 µM amounted to 82%. Besides, the 50% effective concentration (EC50) under setting [1] is above 10000 nM.

As for `Cc1nnc2sc(C(=O)NCCN(C)C(=O)c3ccccc3)c(N)c2c1C` [Example B369], the Emax at 30 µM worked out at 25%. Also, the half-maximal effective concentration (EC50) under setting [1] is above 10000 nM.

Turning to `Cc1nnc2sc(C(=O)N3CC4CN(c5ccc(C#N)cn5)CC4C3)c(N)c2c1C` (stereo not drawn) [Example B438], the maximum response (Emax) at 30 µM turned out to be 45%. In addition, the EC50 under setting [1] was 170 nM.

Take `Cc1nnc2sc(C(=O)NC3CCN(C(=O)C4CC4)C3)c(N)c2c1C` (stereo not drawn) [Example B242]: the Emax at 30 µM was 79%. Moreover, the EC50 under setting [1] is 1300 nM.

`Cc1nnc2sc(C(=O)N3CCC(c4ccncc4)C3)c(N)c2c1C` (stereo not drawn) [Example B156]: the Emax at 30 µM was 53%. Further, the concentration giving a half-maximal response (EC50) under setting [1] is 2200 nM.

Regarding `Cc1nnc2sc(C(=O)NC3CN(S(=O)(=O)c4ccc5ncccc5c4)C3)c(N)c2c1C` [Example B141], the Emax at 30 µM was 92%. For the same compound, the EC50 under setting [1] was 85 nM.

As for `Cc1nnc2sc(C(=O)N3CC(NC(=O)Oc4ccccc4)C3)c(N)c2c1C` [Example B167], the Emax at 30 µM is 65%. Besides, under setting [1], the EC50 was 470 nM.

As to `Cc1nnc2sc(C(=O)N3CC4CN(C(=O)C5CC5)CC4C3)c(N)c2c1C` (stereo not drawn) [Example B332], the Emax at 30 µM was found to be 58%. Under setting [1], the 50% effective concentration (EC50) is 1600 nM.

In the case of `Cc1nnc2sc(C(=O)NC3CCN(S(=O)(=O)c4ccc(OC(F)(F)F)cc4)C3)c(N)c2c1C` (stereo not drawn) [Example B245], the maximal response (Emax) at 30 µM came to 73%. For the same compound, the 50% effective concentration (EC50) under setting [1] was 1200 nM.

For the compound `COc1cccc(SC2CN(C(=O)c3sc4nnc(C)c(C)c4c3N)C2)c1` [Example B418], the Emax at 30 µM turned out to be 56%. Further, the EC50 under setting [1] was 160 nM.

As to `Cc1nnc2sc(C(=O)NC3CCN(C(=O)C4CC4c4ccccc4)C3)c(N)c2c1C` (stereo not drawn) [Example B247], the Emax at 30 µM was 73%. Also, the EC50 under setting [1] is 390 nM.

Consider `Cc1nnc2sc(C(=O)NCc3ccc(S(=O)(=O)C(C)C)cc3)c(N)c2c1C` [Example B48], for which the maximal effect (Emax) at 30 µM was determined as 77%. The concentration for a half-maximal effect (EC50) (EC50 (nM)) is 48 nM.

`Cc1nnc2sc(C(=O)NC3CN(c4ncc(-c5ccccc5)s4)C3)c(N)c2c1C` [Example B426]: the Emax at 30 µM is 67%. In addition, under setting [1], the EC50 was 440 nM.

For the compound `Cc1nnc2sc(C(=O)NCc3ccc(-c4ccc5[nH]ncc5c4C)cc3)c(N)c2c1C` [Example B473], the maximal response (Emax) at 30 µM is 61%. Moreover, the EC50 under setting [1] is 89 nM.

On to `Cc1nnc2sc(C(=O)NCc3ccc(S(=O)(=O)C(C)(C)C(F)(F)F)cc3)c(N)c2c1C` [Example B108], for which the Emax at 30 µM amounted to 61%. Moreover, the half-maximal effective concentration (EC50) under setting [1] is 44 nM.

As to `CC(O)(c1ccc(CNC(=O)c2sc3nnc4c(c3c2N)CCCC4)cc1)C(F)(F)F` (stereo not drawn) [Example B188], the Emax at 30 µM was found to be 56%. The half-maximal effective concentration (EC50) under setting [1] is 900 nM.

With `Cc1nnc2sc(C(=O)NCc3ccc4nonc4c3)c(N)c2c1C` [Example B43], the maximal response (Emax) at 30 µM came to 75%. The concentration giving a half-maximal response (EC50) under setting [1] was 270 nM.

As for `Cc1nnc2sc(C(=O)N3CC(S(C)(=O)=O)C3)c(N)c2c1C` [Example B406], the Emax at 30 µM was 54%. In addition, under setting [1], the EC50 was 1700 nM.

With `COc1cccc(C(=O)N2CCC(NC(=O)c3sc4nnc(C)c(C)c4c3N)C2)c1` (stereo not drawn) [Example B231], the Emax at 30 µM turned out to be 78%. The half-maximal effective concentration (EC50) under setting [1] is 230 nM.

Consider `CCCOC(=O)NC1CN(C(=O)c2sc3nnc(C)c(C)c3c2N)C1` [Example B178], for which the Emax at 30 µM was found to be 60%. Further, the half-maximal effective concentration (EC50) under setting [1] was 1700 nM.

For `Cc1nnc2sc(C(=O)NCc3ccc(OC(F)F)nc3)c(N)c2c1C` [Example B412], the Emax at 30 µM was 85%. The EC50 under setting [1] is 67 nM.

Consider `COc1ccc(C2CC2N(C)C(=O)c2sc3nnc(C)c(C)c3c2N)cc1` (stereo not drawn) [Example B79], for which the maximal response (Emax) at 30 µM is 35%. Under setting [1], the EC50 is above 10000 nM.

For `Nc1c(C(=O)NCc2cccc(F)c2F)sc2nnc3c(c12)CCCC3` [Example B57], the Emax at 30 µM worked out at 47%. For the same compound, the concentration giving a half-maximal response (EC50) under setting [1] is 100 nM.

`CCCOC(=O)N1CCC(NC(=O)c2sc3nnc(C)c(C)c3c2N)C1` (stereo not drawn) [Example B224]: the maximal effect (Emax) at 30 µM is 77%. Also, the EC50 under setting [1] was 610 nM.

Regarding `Cc1nnc2sc(C(=O)NC3CN(c4nc5ccccc5s4)C3)c(N)c2c1C` [Example B422], the Emax at 30 µM was determined as 73%. Also, under setting [1], the EC50 was 17 nM.

Turning to `Cc1cccc(OC(=O)N2CC(NC(=O)c3sc4nnc(C)c(C)c4c3N)C2)c1` [Example B365], the maximal response (Emax) at 30 µM came out at 58%. The concentration for a half-maximal effect (EC50) under setting [1] is 7.9 nM.

Regarding `Cc1nnc2sc(C(=O)NC3CN(C(=O)Nc4ccccc4)C3)c(N)c2c1C` [Example B362], the Emax at 30 µM came to 64%. Moreover, the EC50 under setting [1] was 18 nM.

Turning to `CCOC(=O)N1CC2CN(C(=O)c3sc4nnc(C)c(C)c4c3N)CC2C1` (stereo not drawn) [Example B285], the Emax at 30 µM came to 73%. The EC50 under setting [1] was 2500 nM.

Take `Cc1nnc2sc(C(=O)NCc3ccc([S+](C)[O-])cc3)c(N)c2c1C` (stereo not drawn) [Example B34]: the maximal effect (Emax) at 30 µM came to 82%. Also, the concentration for a half-maximal effect (EC50) (EC50 (nM)) was found to be 140 nM.

`Cc1nnc2sc(C(=O)N3CC4(C3)CN(S(=O)(=O)c3ccccc3)C4)c(N)c2c1C` [Example B394]: the maximal response (Emax) at 30 µM was determined as 47%. Also, the EC50 under setting [1] was 1100 nM.

As to `Cc1nnc2sc(C(=O)NCCN(C)S(C)(=O)=O)c(N)c2c1C` [Example B344], the Emax at 30 µM came to 41%. Moreover, the concentration giving a half-maximal response (EC50) under setting [1] was above 10000 nM.

As for `Cc1c(CN2CCOCC2)nnc2sc(C(=O)NCc3ccc(S(=O)(=O)C(F)(F)F)cc3)c(N)c12` [Example B324], the Emax at 30 µM was determined as 72%. Besides, under setting [1], the concentration giving a half-maximal response (EC50) is 460 nM.

`COc1ccc(CNC(=O)c2sc3nnc4c(c3c2N)CCCC4)cc1` [Example B52]: the maximum response (Emax) at 30 µM came to 54%. Besides, the EC50 under setting [1] is 77 nM.

For `COc1ccc2c(c1)CCN(C(=O)c1sc3nnc(C)c(C)c3c1N)C2` [Example B315], the Emax at 30 µM amounted to 57%. For the same compound, the EC50 under setting [1] is 840 nM.

For `Cc1nnc2sc(C(=O)NC3CCN(c4ccc(Cl)cc4)C3)c(N)c2c1C` (stereo not drawn) [Example B274], the maximum response (Emax) at 30 µM worked out at 69%. For the same compound, under setting [1], the EC50 is 41 nM.

For `Nc1c(C(=O)NCc2ccncc2)sc2nnc(-c3ccccc3)c(-c3ccccc3)c12` [Example B39], the maximal response (Emax) at 30 µM was 40%. Also, the half-maximal effective concentration (EC50) under setting [1] was above 10000 nM.

Turning to `Cc1nnc2sc(C(=O)NCC3CCS(=O)(=O)CC3)c(N)c2c1C` [Example B149], the maximum response (Emax) at 30 µM came to 44%. Moreover, under setting [1], the EC50 was above 10000 nM.

On to `Cc1nnc2sc(C(=O)NCc3ccc(F)cn3)c(N)c2c1C` [Example B509], for which the maximal response (Emax) at 30 µM was 59%. Moreover, the half-maximal effective concentration (EC50) under setting [1] was 1400 nM.

In the case of `Cc1nnc2sc(C(=O)NCc3cc(F)ccc3F)c(N)c2c1C` [Example B5], the maximal response (Emax) at 30 µM is 86%. For the same compound, the EC50 under setting [1] was 180 nM.

Take `Cc1ccc(S(=O)(=O)NC2CCN(C(=O)c3sc4nnc(C)c(C)c4c3N)C2)s1` (stereo not drawn) [Example B257]: the Emax at 30 µM worked out at 62%. Moreover, under setting [1], the concentration for a half-maximal effect (EC50) was 1100 nM.
